# Assay results taken from publication PMC11772769, “Selective cargo and membrane recognition by SNX17 regulates its interaction with Retriever” (EMBO Reports, 2024).
# Changes are numbered by the printed parent chain. Where two headings read alike, the source gives them in different places. Where no end group is shown, it is not given here.
# Experiments:
# [1] = target: T1, SNX17FERM-CT (amino acids 109-470) (Homo sapiens, UniProt Q15036); assay: Fluorescence anisotropy binding of 5-FAM cargo peptides to SNX17FERM-CT
# T1 construct: His-Sumo3 (N, cleaved yes); made in house; host or cells: Escherichia coli BL21(DE3)
# T1 sequence (Q15036 109-470): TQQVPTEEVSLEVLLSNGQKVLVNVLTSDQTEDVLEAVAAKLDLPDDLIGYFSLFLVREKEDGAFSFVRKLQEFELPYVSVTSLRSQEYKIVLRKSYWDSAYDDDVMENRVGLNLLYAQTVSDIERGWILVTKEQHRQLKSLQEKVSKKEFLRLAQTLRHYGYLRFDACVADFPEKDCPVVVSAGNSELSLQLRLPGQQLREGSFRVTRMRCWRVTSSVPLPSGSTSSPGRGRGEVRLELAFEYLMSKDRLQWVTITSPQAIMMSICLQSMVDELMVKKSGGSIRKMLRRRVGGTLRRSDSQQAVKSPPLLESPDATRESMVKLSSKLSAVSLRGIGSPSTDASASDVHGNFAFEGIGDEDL
# Procedure: (§1) Lyophilized peptides were resuspended in 100 mM Hepes pH 8.0 at 5 mg/ml and further diluted in the assay buffer (50 mM Hepes pH 7.5, 300 mM NaCl, and 1 mM DTT). […] The mixture was incubated at 25 °C for at least 30 min and then transferred to 96 Flat Black plates. Fluorescence anisotropy was measured at 25 °C using Spark 10M Plate Reader (Tecan) with a 485/20 excitation filter and a 535/35 emission filter. The dissociation constants were calculated in GraphPad Prism by nonlinear regression fitting of the experimental data to a one-site total binding model. The final KD measurement is the mean of at least two independent experiments.
# MBP = MBP (Escherichia coli, UniProt P0AEX9); assay: Fluorescence anisotropy, MBP negative control; type: binding
# Procedure: as §1
# MBP-SNX17H457A = target: T2, MBP-SNX17H457A (Homo sapiens, UniProt Q15036, H457A); assay: Fluorescence anisotropy binding of 5-FAM peptides to MBP-SNX17 H457A
# T2 construct: M protein marker, R Retriever complex, FL full-length; His (N, cleaved yes); made in house; host or cells: Escherichia coli BL21(DE3)
# T2 sequence (Q15036 1-470 H457A): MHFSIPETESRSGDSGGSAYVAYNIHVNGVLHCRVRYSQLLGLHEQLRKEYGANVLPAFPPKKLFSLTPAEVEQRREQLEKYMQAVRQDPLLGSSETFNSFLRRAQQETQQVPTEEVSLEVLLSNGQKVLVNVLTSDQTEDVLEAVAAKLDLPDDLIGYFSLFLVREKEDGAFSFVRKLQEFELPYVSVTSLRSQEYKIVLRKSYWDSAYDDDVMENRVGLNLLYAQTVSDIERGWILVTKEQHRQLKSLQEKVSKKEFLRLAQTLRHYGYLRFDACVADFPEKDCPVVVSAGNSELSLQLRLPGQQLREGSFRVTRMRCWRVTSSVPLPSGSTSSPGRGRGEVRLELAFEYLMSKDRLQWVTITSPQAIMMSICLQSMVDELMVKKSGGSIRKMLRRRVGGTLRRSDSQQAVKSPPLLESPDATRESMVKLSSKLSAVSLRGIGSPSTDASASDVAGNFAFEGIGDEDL
# Procedure: as §1
# MBP-SNX17V380D = target: T3, MBP-SNX17V380D (Homo sapiens, UniProt Q15036, V380D); assay: Fluorescence anisotropy binding of 5-FAM peptides to MBP-SNX17 V380D
# T3 construct: M protein marker, R Retriever complex, FL full-length; His (N, cleaved yes); made in house; host or cells: Escherichia coli BL21(DE3)
# T3 sequence (Q15036 1-470 V380D): T2 sequence (Q15036 1-470 H457A) with V380D, A457H
# Procedure: as §1
# MBP-SNX17N459A+F462A = target: T4, MBP-SNX17N459A+F462A (Homo sapiens, UniProt Q15036, F462A/N459A); assay: Fluorescence anisotropy binding of 5-FAM peptides to MBP-SNX17 N459A+F462A
# T4 construct: M protein marker, R Retriever complex, FL full-length; His (N, cleaved yes); made in house; host or cells: Escherichia coli BL21(DE3)
# T4 sequence (Q15036 1-470 N459A/F462A): T2 sequence (Q15036 1-470 H457A) with A457H, N459A, F462A
# Procedure: as §1
sequence,measurement,setting,value
KLITYDNPAYEGID [L2 14-mer],Kd,[1],0.64 µM
same,Kd,"MBP; 0.1 μM 5-FAM peptide, pH 7.5, 300 mM NaCl, 25 °C (Fig. EV3B), read-out: KD MBP (negative control)",> 32 µM
same,Kd,"MBP; 5-FAM peptide, replicate Y1, sheet KD-L2-14-mer, unit inferred, read-out: KD MBP",> 32 µM
same,Kd,"MBP; 5-FAM peptide, replicate Y2, sheet KD-L2-14-mer, unit inferred, read-out: KD MBP",> 32 µM
same,Kd,"MBP; 5-FAM peptide, replicate Y3, sheet KD-L2-14-mer, unit inferred, read-out: KD MBP",> 32 µM
same,Kd,MBP-SNX17H457A,1.1 ± 0.3 µM
same,Kd,"MBP-SNX17V380D; 0.1 μM 5-FAM peptide, pH 7.5, 300 mM NaCl, 25 °C, one-site total binding, Bmax fixed at 240, three biological replicates (Fig. 4E)",> 32 µM
same,Kd,"MBP-SNX17V380D; 5-FAM peptide, replicate Y1, sheet KD-L2-14-mer, unit inferred, read-out: KD MBP-SNX17V380D",> 32 µM
same,Kd,"MBP-SNX17V380D; 5-FAM peptide, replicate Y2, sheet KD-L2-14-mer, unit inferred, read-out: KD MBP-SNX17V380D",> 32 µM
same,Kd,"MBP-SNX17V380D; 5-FAM peptide, replicate Y3, sheet KD-L2-14-mer, unit inferred, read-out: KD MBP-SNX17V380D",> 32 µM
same,Kd,MBP-SNX17N459A+F462A,0.6 ± 0.1 µM
